Source: patent US8791123B2, “Substituted pyrazolo[1,5-a]pyrimidine compounds as Trk kinase inhibitors” (Array Biopharma, Inc., priority 2009, dated 2014)
Where two headings read alike, the source gives them in different places.

What was measured:
Human Jak2 kinase domain = Human Jak2 kinase domain (Homo sapiens (Human), UniProt O60674); assay: Jak2 Inhibition Assay (Omnia kinase assay); type: biochemical; conditions: read-out: Jak2 Enzyme IC50
Description: The assays described in Examples C, D, E and F for the determination of JAK1, JAK2, JAK3 and Tyk2 kinase activity, respectively, utilized the Omnia® Kinase fluorescence peptide substrate-based technology (Invitrogen). […] The reactions were therefore read at excitation 360 nm and emission was measured at 485 nm every 50 seconds for 45 minutes using a PerkinElmer EnVision Multilabel Plate Reader.
The final buffer conditions for each of the JAK1, JAK2, JAK3 and Tyk2 assays were as follows: 25 mM HEPES, pH 7.4, 10 mM MgCl2, 0.01% Triton X-100 and 1 mM DTT.
Two-μL aliquots of these were transferred to a fresh plate for a ten-fold intermediate dilution with assay buffer. Five-μL aliquots of the diluted compounds were then transferred to 20-μL of assay mixtures described in Examples C, D, E and F for a final concentration of DMSO of 2%. […] For each plate, percent of control (POC) values were calculated for each well according to the following equation:
[formula] • where • Xmax=Average Uninhibited Controls • Xmin=Average Background IC50's were estimated from the POC's using a standard 4-parameter logistic model:
[formula] • where • A=Minimum Y (Bottom Asymptote) • B=Maximum Y (Top Asymptote) • C=EC50 • D=Slope Factor • X=Compound Concentration (nM) • Y=POC
The IC50 is defined as the concentration of inhibitor at which the POC equals 50 for the fitted curve.
Compounds of Formula I were screened for their ability to inhibit Jak2 using the general enzyme inhibition assay method, in which the assay mixture contained 500 μM ATP, 10 μM Omnia® Y7 peptide (Catalog # IVGN KNZ3071C, Invitrogen Corporation, Carlsbad, Calif.) and 4 nM Jak2 in a total volume of 20 μL. Human Jak2 kinase domain comprising amino acids 808-1132 was purchased from Invitrogen Corporation, Carlsbad, Calif. (catalog # IVGN PV4210).

[1] = biological target: TrkA (histidine-tagged recombinant human TrkA, cytoplasmic domain) (Homo sapiens (Human), UniProt P04629); assay: TrkA ELISA Assay; type: biochemical; conditions: Table 1; ELISA, 500 μM ATP; read-out: TrkA Enzyme IC50
Sequence of TrkA (histidine-tagged recombinant human TrkA, cytoplasmic domain) (P04629 440-796): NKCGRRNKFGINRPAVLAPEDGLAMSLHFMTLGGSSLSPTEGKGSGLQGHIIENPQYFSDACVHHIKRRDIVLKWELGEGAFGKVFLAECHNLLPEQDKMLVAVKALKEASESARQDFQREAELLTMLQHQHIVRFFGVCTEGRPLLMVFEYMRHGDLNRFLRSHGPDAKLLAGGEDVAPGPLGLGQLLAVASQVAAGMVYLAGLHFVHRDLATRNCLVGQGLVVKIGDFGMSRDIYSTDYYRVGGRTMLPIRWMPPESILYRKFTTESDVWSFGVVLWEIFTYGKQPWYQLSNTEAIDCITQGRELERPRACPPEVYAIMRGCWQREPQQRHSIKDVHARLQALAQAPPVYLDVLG
Description: An enzyme-linked immunosorbant assay (ELISA) was used to assess TrkA kinase activity in the presence of inhibitors. Immulon 4HBX 384-well microtiter plates (Thermo part #8755) were coated with a 0.025 mg/mL solution of poly (Glu, Ala, Tyr; 6:3:1; Sigma P3899). […] The reaction mixture was removed from the plate by washing with PBS containing 0.1% (v/v) Tween 20. The phosphorylated reaction product was detected using 0.2 μg/mL of a phosphotyrosine specific monoclonal antibody (clone PY20) conjugated to horseradish peroxidase in conjunction with the TMB Peroxidase Substrate System (KPL). After the addition of 1M phosphoric acid, the chromogenic substrate color intensity was quantitated via absorbance at 450 nm.

[2] = Table 1, 500 μM ATP, >1000 nM when >50% inhibition not observed at 1000 nM

Sequence of Human Jak2 kinase domain (O60674 808-1132): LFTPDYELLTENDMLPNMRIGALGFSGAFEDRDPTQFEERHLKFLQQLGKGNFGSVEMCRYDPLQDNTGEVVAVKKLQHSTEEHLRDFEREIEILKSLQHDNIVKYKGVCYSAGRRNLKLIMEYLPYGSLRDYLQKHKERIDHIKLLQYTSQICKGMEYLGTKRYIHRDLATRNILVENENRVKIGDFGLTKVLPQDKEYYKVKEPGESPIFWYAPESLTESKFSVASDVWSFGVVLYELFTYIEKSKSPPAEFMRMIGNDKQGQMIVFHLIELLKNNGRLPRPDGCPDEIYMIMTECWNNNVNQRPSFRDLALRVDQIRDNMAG

Row | SMILES | IC50 (Human Jak2 kinase domain; [2]) [nM] | IC50 [1] [nM] | IC50 (Human Jak2 kinase domain) [nM]
1 | O=C(Nc1ccc(F)cn1)c1cnn2ccc(N3CCC[C@@H]3c3cncc(F)c3)nc12 [Example 95, (R)—N-(5-fluoropyridin-2-yl)-5-(2-(5-fluoropyridin-3-yl)pyrrolidin-1-yl)pyrazolo[1,5-a]pyrimidine-3-carboxamide] | > 1000 | 5.4 | 
2 | CC(C)[C@@H](CO)NC(=O)c1cnn2ccc(N3CCC[C@@H]3c3cncc(F)c3)nc12 [Example 121, 5-((R)-2-(5-fluoropyridin-3-yl)pyrrolidin-1-yl)-N-((S)-1-hydroxy-3-methylbutan-2-yl)pyrazolo[1,5-a]pyrimidine-3-carboxamide] | > 1000 | 182 | 
3 | CC1(O)CN(C(=O)c2cnn3ccc(N4CCC[C@@H]4c4cc(F)ccc4F)nc23)C1 [Example 32, (R)-(5-(2-(2,5-difluorophenyl)pyrrolidin-1-yl)pyrazolo[1,5-a]pyrimidin-3-yl)(3-hydroxy-3-methylazetidin-1-yl)methanone] | > 1000 | 5.3 | 
4 | O=C(NC1(CO)CC1)c1cnn2ccc(N3CCC[C@@H]3c3cncc(F)c3)nc12 [Example 107, (R)-5-(2-(5-fluoropyridin-3-yl)pyrrolidin-1-yl)-N-(1-(hydroxymethyl)cyclopropyl)pyrazolo[1,5-a]pyrimidine-3-carboxamide] | > 1000 | 16.4 | 
5 | COc1ccc(F)cc1[C@H]1CCCN1c1ccn2ncc(C(=O)NCCN3CCOCC3)c2n1 [Example 54, (R)-5-(2-(5-fluoro-2-methoxyphenyl)pyrrolidin-1-yl)-N-(2-morpholinoethyl)pyrazolo[1,5-a]pyrimidine-3-carboxamide] |  | 2.25 | > 1000
6 | Cc1ncc(F)cc1[C@H]1CCCN1c1ccn2ncc(C(=O)NC[C@@H](C)O)c2n1 [Example 189, (R)-5-(2-(5-fluoro-2-methylpyridin-3-yl)pyrrolidin-1-yl)-N-((R)-2-hydroxypropyl)pyrazolo[1,5-a]pyrimidine-3-carboxamide] | > 1000 | 76.4 | 
7 | CC(C)(C)NC(=O)c1cnn2ccc(N3CCC[C@@H]3c3cc(F)c[nH]c3=O)nc12 [Example 202, (R)—N-tert-butyl-5-(2-(5-fluoro-2-oxo-1,2-dihydropyridin-3-yl)pyrrolidin-1-yl)pyrazolo[1,5-a]pyrimidine-3-carboxamide] | > 1000 | 19.3 | 
8 | O=C(NC1CC1)c1cnn2ccc(N3CCC[C@@H]3c3cc(F)cc(OCC(O)CO)c3)nc12 (stereo partly drawn) [Example 208, N-cyclopropyl-5-((2R)-2-(3-(2,3-dihydroxypropoxy)-5-fluorophenyl)pyrrolidin-1-yl)pyrazolo[1,5-a]pyrimidine-3-carboxamide] | > 1000 | 1.7 | 
9 | COCCOc1cc(F)cc([C@H]2CCCN2c2ccn3ncc(C(=O)NC4CC4)c3n2)c1 [Example 77, (R)—N-cyclopropyl-5-(2-(3-fluoro-5-(2-methoxyethoxy)phenyl)pyrrolidin-1-yl)pyrazolo[1,5-a]pyrimidine-3-carboxamide] | > 1000 | 5.37 | 
10 | COc1ncc(F)cc1[C@H]1CCCN1c1ccn2ncc(C(=O)NC(CO)CO)c2n1 [Example 160, (R)-N-(1,3-dihydroxypropan-2-yl)-5-(2-(5-fluoro-2-methoxypyridin-3-yl)pyrrolidin-1-yl)pyrazolo[1,5-a]pyrimidine-3-carboxamide] | > 1000 | 25.6 | 
11 | COc1ncc(F)cc1[C@H]1CCCN1c1ccn2ncc(C(=O)NC[C@@H](O)CO)c2n1 [Example 150, N-((R)-2,3-dihydroxypropyl)-5-((R)-2-(5-fluoro-2-methoxypyridin-3-yl)pyrrolidin-1-yl)pyrazolo[1,5-a]pyrimidine-3-carboxamide] | > 1000 | 5.7 | 
12 | O=C(NCCO)c1cnn2ccc(N3CCC[C@@H]3c3cncc(F)c3)nc12 [Example 112, (R)-5-(2-(5-fluoropyridin-3-yl)pyrrolidin-1-yl)-N-(2-hydroxyethyl)pyrazolo[1,5-a]pyrimidine-3-carboxamide] | > 1000 | 30.9 | 
13 | O=C(NCC(F)(F)F)c1cnn2ccc(N3CCC[C@@H]3c3cncc(F)c3)nc12 [Example 131, (R)-5-(2-(5-fluoropyridin-3-yl)pyrrolidin-1-yl)-N-(2,2,2-trifluoroethyl)pyrazolo[1,5-a]pyrimidine-3-carboxamide] | > 1000 | 5 | 
14 | O=C(NC1(CO)CC1)c1cnn2ccc(N3CCC[C@@H]3c3cc(F)ccc3F)nc12 [Example 16, (R)-5-(2-(2,5-difluorophenyl)pyrrolidin-1-yl)-N-(1-(hydroxymethyl)cyclopropyl)pyrazolo[1,5-a]pyrimidine-3-carboxamide] | > 1000 | 0.9 | 
15 | COc1ncc(F)cc1[C@H]1CCCN1c1ccn2ncc(C(=O)NC(C)(C)C)c2n1 [Example 80, (R)—N-tert-butyl-5-(2-(5-fluoro-2-methoxypyridin-3-yl)pyrrolidin-1-yl)pyrazolo[1,5-a]pyrimidine-3-carboxamide] |  | 1.8 | 869

Further compounds by falling IC50 [1], results first:

Row | IC50 (Human Jak2 kinase domain; [2]) [nM] | IC50 [1] [nM] | IC50 (Human Jak2 kinase domain) [nM] | SMILES
16 | > 1000 | 142 |  | O=C(N[C@@H]1CCC[C@@H]1O)c1cnn2ccc(N3CCC[C@@H]3c3cncc(F)c3)nc12 [Example 135, 5-((R)-2-(5-fluoropyridin-3-yl)pyrrolidin-1-yl)-N-((1R,2S)-2-hydroxycyclopentyl)pyrazolo[1,5-a]pyrimidine-3-carboxamide]
17 | > 1000 | 8.7 |  | Cn1cc(F)cc([C@H]2CCCN2c2ccn3ncc(C(=O)Nc4cccnc4)c3n2)c1=O [Example 231, (R)-5-(2-(5-fluoro-1-methyl-2-oxo-1,2-dihydropyridin-3-yl)pyrrolidin-1-yl)-N-(pyridin-3-yl)pyrazolo[1,5-a]pyrimidine-3-carboxamide]
18 | > 1000 | 7.4 |  | Cc1ncc(F)cc1[C@H]1CCCN1c1ccn2ncc(C(=O)NC(C)C)c2n1 [Example 184, (R)-5-(2-(5-fluoro-2-methylpyridin-3-yl)pyrrolidin-1-yl)-N-isopropylpyrazolo[1,5-a]pyrimidine-3-carboxamide]
19 | > 1000 | 6.1 |  | COc1ncc(F)cc1[C@H]1CCCN1c1ccn2ncc(C(=O)NCC(O)CO)c2n1 (stereo partly drawn) [Example 149, N-(2,3-dihydroxypropyl)-5-((R)-2-(5-fluoro-2-methoxypyridin-3-yl)pyrrolidin-1-yl)pyrazolo[1,5-a]pyrimidine-3-carboxamide]
20 | > 1000 | 4.8 |  | Cc1ncc(F)cc1[C@H]1CCCN1c1ccn2ncc(C(=O)N[C@@H]3CCC[C@H]3O)c2n1 [Example 197, 5-((R)-2-(5-fluoro-2-methylpyridin-3-yl)pyrrolidin-1-yl)-N-((1R,2R)-2-hydroxycyclopentyl)pyrazolo[1,5-a]pyrimidine-3-carboxamide]
21 | > 1000 | 2.95 |  | Cn1cnc(CNC(=O)c2cnn3ccc(N4CCC[C@@H]4c4cc(F)ccc4F)nc23)c1 [Example 21, (R)-5-(2-(2,5-difluorophenyl)pyrrolidin-1-yl)-N-((1-methyl-1H-imidazol-4-yl)methyl)pyrazole[1,5-a]pyrimidine-3-carboxamide]
22 | > 1000 | 0.95 |  | O=C(NCCN1CCOCC1)c1cnn2ccc(N3CCC[C@@H]3c3cc(F)ccc3F)nc12 [Example 4, (R)-5-(2-(2,5-difluorophenyl)pyrrolidin-1-yl)-N-(2-morpholinoethyl)pyrazolo[1,5-a]pyrimidine-3-carboxamide]
